Results as given in PubChem BioAssay (NCI).
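Here, GI50 denotes the concentration required for 50% inhibition of growth. The concentration for full growth arrest is given as TGI.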

Columns and labels:
Experiment in all cases: NCI-60 cell line screen, 384-well format
786-0 renal = system: 786-0 renal
A498 renal = system: A498 renal
A549 NSCLC = system: A549 NSCLC
CCRF-CEM leukemia = system: CCRF-CEM leukemia
DU-145 prostate = system: DU-145 prostate
HCC-2998 colon = system: HCC-2998 colon
HCT-116 colon = system: HCT-116 colon
HCT-15 colon = system: HCT-15 colon
HOP-92 NSCLC = system: HOP-92 NSCLC
K-562 leukemia = system: K-562 leukemia
LOX IMVI melanoma = system: LOX IMVI melanoma
MALME-3M melanoma = system: MALME-3M melanoma
MDA-MB-435 melanoma = system: MDA-MB-435 melanoma
MDA-MB-468 breast = system: MDA-MB-468 breast
MOLT-4 leukemia = system: MOLT-4 leukemia
NCI-H322M lung = system: NCI-H322M lung
NCI-H460 NSCLC = system: NCI-H460 NSCLC
NCI-H522 lung = system: NCI-H522 lung
OVCAR-3 ovarian = system: OVCAR-3 ovarian
OVCAR-4 ovarian = system: OVCAR-4 ovarian
OVCAR-5 ovarian = system: OVCAR-5 ovarian
SF-295 CNS = system: SF-295 CNS
SF-539 CNS = system: SF-539 CNS
SK-MEL-28 melanoma = system: SK-MEL-28 melanoma
SK-MEL-5 melanoma = system: SK-MEL-5 melanoma
SK-OV-3 ovarian = system: SK-OV-3 ovarian
SN12C renal = system: SN12C renal
SNB-19 CNS = system: SNB-19 CNS
T-47D breast = system: T-47D breast
TK-10 renal = system: TK-10 renal
U251 glioblastoma = system: U251 glioblastoma
UACC-257 melanoma = system: UACC-257 melanoma

SMILES: CC#CC(=O)N[C@H]1CCCN(c2c(F)cc(C(N)=O)c3[nH]c(C)c(C)c23)C1
- GI50 ([…]-0 renal): 15.9 µM
- TGI (786-0 renal): 33.2 µM
- GI50 (A498 renal): 14.7 µM
- TGI (A498 renal): 28.4 µM
- GI50 (A549 NSCLC): 18.1 µM
- TGI (A549 NSCLC): 37.9 µM
- GI50 (CCRF-CEM leukemia): 16.9 µM
- TGI (CCRF-CEM leukemia): 30.8 µM
- GI50 (DU-145 prostate): 18.1 µM
- TGI (DU-145 prostate): 37.2 µM
- GI50 (HCC-2998 colon): 11.1 µM
- TGI (HCC-2998 colon): 23.2 µM
- GI50 (HCT-116 colon): 13.8 µM
- TGI (HCT-116 colon): 27.3 µM
- GI50 (HCT-15 colon): 10.8 µM
- TGI (HCT-15 colon): 22.9 µM
- GI50 (HOP-92 NSCLC): 15 µM
- TGI (HOP-92 NSCLC): 33.7 µM
- GI50 (K-562 leukemia): 15 µM
- TGI (K-562 leukemia): 28.9 µM
- GI50 (LOX IMVI melanoma): 15.4 µM
- TGI (LOX IMVI melanoma): 28.9 µM
- GI50 (MALME-3M melanoma): 18 µM
- TGI (MALME-3M melanoma): 32 µM
- GI50 (MDA-MB-435 melanoma): 17.2 µM
- TGI (MDA-MB-435 melanoma): 34.1 µM
- GI50 (MDA-MB-468 breast): 2.88 µM
- TGI (MDA-MB-468 breast): 11.1 µM
- GI50 (MOLT-4 leukemia): 14 µM
- TGI (MOLT-4 leukemia): 27.1 µM
- GI50 (NCI-H322M lung): 16.2 µM
- TGI (NCI-H322M lung): 30.9 µM
- GI50 (NCI-H460 NSCLC): 15.8 µM
- TGI (NCI-H460 NSCLC): 29.6 µM
- GI50 (NCI-H522 lung): 4.54 µM
- TGI (NCI-H522 lung): 17.5 µM
- GI50 (OVCAR-3 ovarian): 14.5 µM
- TGI (OVCAR-3 ovarian): 28 µM
- GI50 (OVCAR-4 ovarian): 13.4 µM
- TGI (OVCAR-4 ovarian): 26.6 µM
- GI50 (OVCAR-5 ovarian): 16.9 µM
- TGI (OVCAR-5 ovarian): 38.4 µM
- GI50 (SF-295 CNS): 13.9 µM
- TGI (SF-295 CNS): 26.9 µM
- GI50 (SF-539 CNS): 15.3 µM
- TGI (SF-539 CNS): 28.8 µM
- GI50 (SK-MEL-28 melanoma): 18.5 µM
- TGI (SK-MEL-28 melanoma): 33.1 µM
- GI50 (SK-MEL-5 melanoma): 13.8 µM
- TGI (SK-MEL-5 melanoma): 26.8 µM
- GI50 (SK-OV-3 ovarian): 14.4 µM
- TGI (SK-OV-3 ovarian): 34.3 µM
- GI50 (SN12C renal): 14.9 µM
- TGI (SN12C renal): 28.9 µM
- GI50 (SNB-19 CNS): 17.3 µM
- TGI (SNB-19 CNS): 32.4 µM
- GI50 (T-47D breast): 5.36 µM
- TGI (T-47D breast): 18.6 µM
- GI50 (TK-10 renal): 21 µM
- TGI (TK-10 renal): 58.6 µM
- GI50 (U251 glioblastoma): 17.3 µM
- TGI (U251 glioblastoma): 31.4 µM
- GI50 (UACC-257 melanoma): 11.5 µM
- TGI (UACC-257 melanoma): 23.7 µM
